Several values for one entry are separate records, joined by “and”; a condition that tells them apart may be missing. Equal entries are not always repeated. Where two headings read alike, the source gives them in different places.
Assays:
Assay in all cases: BLI direct binding
Design in all cases: species or system A. thaliana
[1] = biological target: T1, FAMA_ACTL (Arabidopsis thaliana, UniProt Q56YJ8)
T1 construct: FAMA-ACTL (306-414); GST (N, cleaved yes); made in house; host or cells: E. coli BL21
T1 sequence (Q56YJ8 306-414): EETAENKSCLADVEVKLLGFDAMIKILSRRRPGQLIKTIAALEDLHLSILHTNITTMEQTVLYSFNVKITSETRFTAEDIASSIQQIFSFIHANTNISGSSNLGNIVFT
Source text: (§1) A. thaliana SCRM (1-494), ΔNSPCH (98-364), MUTE (1-202), ΔNFAMA (190-414), MUTEΔC (1-114), MUTER133A_R134A, MUTEE162A_E163A, MUTER133A_R134A_E162A_E163A, SCRM-ACTL (405-494), MUTE-ACTL (114-202), SPCH-ACTL (285-364), FAMA-ACTL (306-414), MUTE_ACTLR133A_R134A, MUTE_ACTLE162A_E163A, MUTE_ACTLR133A_R134A_E162A_E163A were cloned into pGEX-4T-1 vector with an N-terminal GST tag and a thrombin cleavage sequence. For protein expression, the constructs were transformed into E. coli strain BL21. For each transformant, a single colony was selected and incubated in 10 ml LB liquid media. The overnight-incubated E. coli suspensions were transferred to 1 L LB medium and incubated at 37 °C for around 2 h until the OD600 reached 0.4–0.6. The isopropyl β-D-1-thiogalactopyranoside ([…] of final concentration) was added to the cultures and the strains were incubated at 22 °C for a further 18 h. GST-fused proteins were purified using glutathione agarose resin. The soluble portion of the cell lysate was loaded onto a GST-Sepharose column. Nonspecifically bound proteins were removed by washing the column with 20 mM Tris pH 8.0, 200 mM NaCl. The bound GST-fused protein was eluted with 10 mm glutathione and 20 mM Tris pH 8.0, 200 mM NaCl. The GST-fused proteins were exchanged with phosphate-buffered saline buffer, and then the solution was treated with 50 μg of thrombin for 10–12 h at 16 ^οC. The GST portion of the protein was cleaved during thrombin digestion, and then the whole solution was reloaded onto the glutathione S-transferase column to obtain pure protein. The purified proteins were further purified by gel filtration on a Superdex-200 (GE) column using fast protein liquid chromatography and phosphate buffer (pH 7.2) as the eluent. The purity of the protein was checked by SDS-PAGE. For detailed lists of oligo DNA and plasmid information, see Supplementary Tables 5, 6, respectively.
(§2) The binding affinities of SCRM to MUTE / MUTER133A_R134A / MUTEE162A_E163A / MUTER133A_R134A_E162A_E163A in presence and absence of Stomidazolone (3) and its analogues (AYSJ1059 (5) and AYSJ1061 (6)), and Stomidazolone / AYSJ1059 / AYSJ1061 interactions with GST-tagged SCRM, MUTE, SPCH, FAMA, MUTE ΔACTL, MUTE_ACTL, SCRM_ACTL, SPCH_ACTL and FAMA_ACTL, MUTER133A_134A, MUTEE162A_E163A, MUTER133A_R134A_E162A_E163A were measured using the Octet Red96 system (ForteBio, Pall Life Sciences) following the manufacturer’s protocols. The optical probes coated with anti-GST were first loaded with 500 nM GST tagged proteins before kinetic binding analyses. The experiment was performed in 96-well plates maintained at 30 °C. Each well was loaded with 200 μL reaction volume for the experiment. The binding buffer used in these experiments contained 1× PBS supplemented with 2% DMSO, 0.02% Tween20. The concentrations of the Stomidazolone as the analyte in the binding buffer were 100, 50, 25, 12.5, 6.25, 3.12, and 1.56 μM. There was no binding of the analytes to the unloaded probes as shown by the control wells. Binding kinetics to all seven concentrations of the analytes were measured simultaneously using default parameters on the instrument. The data were analyzed using the Octet data analysis software. The association and dissociation curves were fit with the 1:1 homogeneous ligand model. The kobs (observed rate constant) values were used to calculate Kd, with steady-state analysis of the direct binding. See Supplementary Table 3 for details.

[2] = biological target: T2, MUTE bHLH domain (Arabidopsis thaliana, UniProt Q9M8K6); details: for Response: BLI, GST-MUTE_bHLH on Anti-GST sensor, unit assumed
T2 construct: MUTEΔC (1-114); made in house; host or cells: E. coli BL21
T2 sequence (Q9M8K6 1-114): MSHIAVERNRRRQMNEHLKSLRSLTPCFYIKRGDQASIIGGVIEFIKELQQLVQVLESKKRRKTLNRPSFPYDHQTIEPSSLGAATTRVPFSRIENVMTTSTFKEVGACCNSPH
Source text: as §1, §2

[3] = biological target: T3, MUTE_ACTLR133A_R134A_E162A_E163A (Arabidopsis thaliana, UniProt Q9M8K6, E162A/E163A/R133A/R134A); details: for Response: MUTE_R133A_R134A_E162A_E163A on Anti-GST sensor, rep-1, rep-2
T3 construct: MUTE-ACTL (114-202); made in house; host or cells: E. coli BL21
T3 sequence (Q9M8K6 114-202 R133A/R134A/E162A/E163A): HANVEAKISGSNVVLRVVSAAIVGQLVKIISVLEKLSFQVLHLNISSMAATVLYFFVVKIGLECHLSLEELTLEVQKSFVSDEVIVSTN
Source text: as §1, §2

[4] = biological target: T4, SCRM_ACTL (Arabidopsis thaliana, UniProt Q9LSE2)
T4 construct: SCRM-ACTL (405-494); GST (N, cleaved yes); made in house; host or cells: E. coli BL21
T4 sequence (Q9LSE2 405-494): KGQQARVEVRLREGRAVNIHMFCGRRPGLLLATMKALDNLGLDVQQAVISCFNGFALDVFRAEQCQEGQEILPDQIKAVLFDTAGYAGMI
Source text: as §1, §2

[5] = biological target: T5, SPCH_ACTL (Arabidopsis thaliana, UniProt Q700C7)
T5 construct: SPCH-ACTL (285-364); GST (N, cleaved yes); made in house; host or cells: E. coli BL21
T5 sequence (Q700C7 285-364): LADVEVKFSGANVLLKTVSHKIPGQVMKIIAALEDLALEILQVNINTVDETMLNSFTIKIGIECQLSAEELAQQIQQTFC
Source text: as §1, §2

[6] = BLI steady state, read-out: KD (SS)

Question: With `O=C1C(c2ccccc2)=NC(NS(=O)(=O)c2ccccc2)(c2ccccc2)N1S(=O)(=O)c1ccccc1` (stereo not drawn) [Stomidazolone] as the molecule, how does the Kd [1, 6] read?
Answer: The Kd was 105 ± 13.8 µM.

Question: And the Kd ([1]; BLI, read-out: KD)?
Answer: Its Kd is 95.2 ± 3.5 µM.

Question: What about the “binding to MUTE bHLH versus ACTL domain (in words)” value ([2]; BLI (Fig. 6h)) of the same molecule?
Answer: The value was “specifically binds to the ACTL domain”.

Question: What about the Response ([2]; Stomid Conc. (nM) 6.25) of the same molecule?
Answer: The Response was 0.0607 nm.

Question: What about the Response ([2]; Stomid Conc. (nM) 12.5) of the same molecule?
Answer: Its Response is 0.0612 nm.

Question: And the Response ([2]; Stomid Conc. (nM) 25)?
Answer: The Response was 0.0712 nm.

Question: And the Response ([2]; Stomid Conc. (nM) 50)?
Answer: The Response was 0.0833 nm.

Question: What about the Response ([2]; Stomid Conc. (nM) 100) of the same molecule?
Answer: The Response was 0.0921 nm.

Question: What about the Response ([2]; Stomid Conc. (nM) 200) of the same molecule?
Answer: The Response was 0.106 nm.

Question: What about the “KD (SS)” value ([3]; BLI steady state, MUTE_ACTL R133A_R134A_E162A_E163A, ND = no binding was detected) of the same molecule?
Answer: The value was “no binding was detected”.

Question: What about the Response ([3]; Stomid 3.12 µM) of the same molecule?
Answer: Its Response is 0.021 and 0.041.

Question: And the Response ([3]; Stomid 6.25 µM)?
Answer: The Response was 0.061 and 0.035.

Question: And the Response ([3]; Stomid 12.5 µM)?
Answer: Its Response is 0.063 and 0.047.

Question: And the Response ([3]; Stomid 25 µM)?
Answer: The Response was 0.078 and 0.041.

Question: What about the Response ([3]; Stomid 50 µM) of the same molecule?
Answer: The Response was 0.062 and 0.082.

Question: What about the Response ([3]; Stomid 100 µM) of the same molecule?
Answer: Its Response is 0.075 and 0.108.

Question: And the Response ([3]; Stomid 200 µM)?
Answer: Its Response is 0.104 and 0.136.

Question: And the Kd [4, 6]?
Answer: Its Kd is 76 ± 6.8 µM.

Question: And the Kd ([4]; BLI, read-out: KD)?
Answer: Its Kd is 78.2 ± 1.2 µM.

Question: And the Kd [5, 6]?
Answer: Its Kd is 95.2 ± 3.8 µM.

Question: What about the Kd ([5]; BLI, read-out: KD) of the same molecule?
Answer: The Kd was 88.1 ± 1.1 µM.

Source: publication PMC11500415, “Chemical inhibition of stomatal differentiation by perturbation of the master-regulatory bHLH heterodimer via an ACT-Like domain” (Nature Communications, 2024)
